Where “and” joins values, the source holds several entries; their conditions need not be identical. Equal entries are not always repeated.
Test: The binding affinities (Ki) of compounds were determined using fluorescence polarization assays (FPA) that measure their ability to competitively displace a Bad-derived peptide from Bcl-xL. Compound efficacy (EC50) in a cellular context was evaluated by testing their ability to reverse the protection from cytokine w

SMILES	EC50	EC50 (pH 7.4)
CN(C)CC[C@H](CSc1ccccc1)Nc1ccc(S(=O)(=O)NC(=O)c2ccc(N3CCN(C(=O)c4ccccc4)CC3)cc2)cc1[N+](=O)[O-] [4-(4-benzoylpiperazin-1-yl)-N-[(4-{[(2R)-4-(dimethylamino)-1-(phenylsulfanyl)butan-2-yl]amino}-3-nitrobenzene)sulfonyl]benzamide]	> 50000 nM	14600 nM
CN(C)CC[C@H](CSc1ccccc1)Nc1ccc(S(=O)(=O)NC(=O)c2ccc(N3CCN(Cc4ccccc4)CC3)cc2)cc1[N+](=O)[O-] [4-(4-benzylpiperazin-1-yl)-N-[(4-{[(2R)-4-(dimethylamino)-1-(phenylsulfanyl)butan-2-yl]amino}-3-nitrobenzene)sulfonyl]benzamide]	1700 nM	1100 nM
CN(C)CC[C@H](CSc1ccccc1)Nc1ccc(S(=O)(=O)NC(=O)c2ccc(N3CCN(Cc4ccccc4-c4ccccc4Cl)CC3)cc2)cc1[N+](=O)[O-] [4-(4-{[2-(2-chlorophenyl)phenyl]methyl}piperazin-1-yl)-N-[(4-{[(2R)-4-(dimethylamino)-1-(phenylsulfanyl)butan-2-yl]amino}-3-nitrobenzene)sulfonyl]benzamide]	56 nM and 27 nM	
CN(C)CC[C@H](CSc1ccccc1)Nc1ccc(S(=O)(=O)NC(=O)c2ccc(N3CCN(Cc4ccccc4-c4cccc(Cl)c4)CC3)cc2)cc1[N+](=O)[O-] [4-(4-{[2-(3-chlorophenyl)phenyl]methyl}piperazin-1-yl)-N-[(4-{[(2R)-4-(dimethylamino)-1-(phenylsulfanyl)butan-2-yl]amino}-3-nitrobenzene)sulfonyl]benzamide]	180 nM and 33 nM	
CN(C)CC[C@H](CSc1ccccc1)Nc1ccc(S(=O)(=O)NC(=O)c2ccc(N3CCN(Cc4ccccc4NC4CCCCC4)CC3)cc2)cc1[N+](=O)[O-] [4-(4-{[2-(cyclohexylamino)phenyl]methyl}piperazin-1-yl)-N-[(4-{[(2R)-4-(dimethylamino)-1-(phenylsulfanyl)butan-2-yl]amino}-3-nitrobenzene)sulfonyl]benzamide]	660 nM and 340 nM	
CN(C)CC[C@H](CSc1ccccc1)Nc1ccc(S(=O)(=O)NC(=O)c2ccc(N3CCN(C(=O)Nc4ccccc4)CC3)cc2)cc1[N+](=O)[O-] [4-(4-{[(4-{[(2R)-4-(dimethylamino)-1-(phenylsulfanyl)butan-2-yl]amino}-3-nitrobenzene)sulfonyl]carbamoyl}phenyl)-N-phenylpiperazine-1-carboxamide]	> 50000 nM	> 50000 nM
CN(C)CC[C@H](CSc1ccccc1)Nc1ccc(S(=O)(=O)NC(=O)c2ccc(N3CCN(Cc4ccccc4C4CCCCC4)CC3)cc2)cc1[N+](=O)[O-] [4-{4-[(2-cyclohexylphenyl)methyl]piperazin-1-yl}-N-[(4-{[(2R)-4-(dimethylamino)-1-(phenylsulfanyl)butan-2-yl]amino}-3-nitrobenzene)sulfonyl]benzamide]	340 nM and 120 nM	
CC1OC2(CCN(c3ccc(C(=O)NS(=O)(=O)c4ccc(N[C@H](CCN(C)C)CSc5ccccc5)c([N+](=O)[O-])c4)cc3)CC2)N(Cc2ccccc2)C1=O (stereo partly drawn) [4-{4-benzyl-2-methyl-3-oxo-1-oxa-4,8-diazaspiro[4.5]decan-8-yl}-N-[(4-{[(2R)-4-(dimethylamino)-1-(phenylsulfanyl)butan-2-yl]amino}-3-nitrobenzene)sulfonyl]benzamide]	> 50000 nM	> 20000 nM
CN(C)CC[C@H](CSc1ccccc1)Nc1ccc(S(=O)(=O)NC(=O)c2ccc(N3CCC(C)(C)CC3)cc2)cc1[N+](=O)[O-] [N-[(4-{[(2R)-4-(dimethylamino)-1-(phenylsulfanyl)butan-2-yl]amino}-3-nitrobenzene)sulfonyl]-4-(4,4-dimethylpiperidin-1-yl)benzamide]	2200 nM	
COc1cccc(-c2ccccc2CN2CCN(c3ccc(C(=O)NS(=O)(=O)c4ccc(N[C@H](CCN(C)C)CSc5ccccc5)c([N+](=O)[O-])c4)cc3)CC2)c1 [N-[(4-{[(2R)-4-(dimethylamino)-1-(phenylsulfanyl)butan-2-yl]amino}-3-nitrobenzene)sulfonyl]-4-(4-{[2-(3-methoxyphenyl)phenyl]methyl}piperazin-1-yl)benzamide]	380 nM and 460 nM	
CN(C)CC[C@H](CSc1ccccc1)Nc1ccc(S(=O)(=O)NC(=O)c2ccc(N3CCN(Cc4ccccc4-c4ccc(F)cc4)CC3)cc2)cc1[N+](=O)[O-] [N-[(4-{[(2R)-4-(dimethylamino)-1-(phenylsulfanyl)butan-2-yl]amino}-3-nitrobenzene)sulfonyl]-4-(4-{[2-(4-fluorophenyl)phenyl]methyl}piperazin-1-yl)benzamide]	130 nM and 27 nM	
COc1ccc(-c2ccccc2CN2CCN(c3ccc(C(=O)NS(=O)(=O)c4ccc(N[C@H](CCN(C)C)CSc5ccccc5)c([N+](=O)[O-])c4)cc3)CC2)cc1 [N-[(4-{[(2R)-4-(dimethylamino)-1-(phenylsulfanyl)butan-2-yl]amino}-3-nitrobenzene)sulfonyl]-4-(4-{[2-(4-methoxyphenyl)phenyl]methyl}piperazin-1-yl)benzamide]	30 nM and 25 nM	
CN(C)CC[C@H](CSc1ccccc1)Nc1ccc(S(=O)(=O)NC(=O)c2ccc(N3CCN(Cc4ccccc4-c4ccc(-c5ccccc5)cc4)CC3)cc2)cc1[N+](=O)[O-] [N-[(4-{[(2R)-4-(dimethylamino)-1-(phenylsulfanyl)butan-2-yl]amino}-3-nitrobenzene)sulfonyl]-4-(4-{[2-(4-phenylphenyl)phenyl]methyl}piperazin-1-yl)benzamide]	22 nM and 68 nM	
CSc1ccccc1CN1CCN(c2ccc(C(=O)NS(=O)(=O)c3ccc(N[C@H](CCN(C)C)CSc4ccccc4)c([N+](=O)[O-])c3)cc2)CC1 [N-[(4-{[(2R)-4-(dimethylamino)-1-(phenylsulfanyl)butan-2-yl]amino}-3-nitrobenzene)sulfonyl]-4-(4-{[2-(methylsulfanyl)phenyl]methyl}piperazin-1-yl)benzamide]	95 nM and 130 nM	
CN(C)CC[C@H](CSc1ccccc1)Nc1ccc(S(=O)(=O)NC(=O)c2ccc(N3CCN(Cc4ccccc4N4CCOCC4)CC3)cc2)cc1[N+](=O)[O-] [N-[(4-{[(2R)-4-(dimethylamino)-1-(phenylsulfanyl)butan-2-yl]amino}-3-nitrobenzene)sulfonyl]-4-(4-{[2-(morpholin-4-yl)phenyl]methyl}piperazin-1-yl)benzamide]	430 nM and 460 nM	
CN(C)CC[C@H](CSc1ccccc1)Nc1ccc(S(=O)(=O)NC(=O)c2ccc(N3CCN(Cc4ccccc4-c4cccnc4)CC3)cc2)cc1[N+](=O)[O-] [N-[(4-{[(2R)-4-(dimethylamino)-1-(phenylsulfanyl)butan-2-yl]amino}-3-nitrobenzene)sulfonyl]-4-(4-{[2-(pyridin-3-yl)phenyl]methyl}piperazin-1-yl)benzamide]	800 nM and 820 nM	
CN(C)CC[C@H](CSc1ccccc1)Nc1ccc(S(=O)(=O)NC(=O)c2ccc(N3CCN(Cc4ccccc4C(F)(F)F)CC3)cc2)cc1[N+](=O)[O-] [N-[(4-{[(2R)-4-(dimethylamino)-1-(phenylsulfanyl)butan-2-yl]amino}-3-nitrobenzene)sulfonyl]-4-(4-{[2-(trifluoromethyl)phenyl]methyl}piperazin-1-yl)benzamide]	390 nM and 130 nM	
CN(C)CC[C@H](CSc1ccccc1)Nc1ccc(S(=O)(=O)NC(=O)c2ccc(N3CCC(=Cc4ccccn4)CC3)cc2)cc1[N+](=O)[O-] [N-[(4-{[(2R)-4-(dimethylamino)-1-(phenylsulfanyl)butan-2-yl]amino}-3-nitrobenzene)sulfonyl]-4-[4-(pyridin-2-ylmethylidene)piperidin-1-yl]benzamide]	550 nM and 1380 nM	
CN(C)CC[C@H](CSc1ccccc1)Nc1ccc(S(=O)(=O)NC(=O)c2ccc(N3CCC(=Cc4cccnc4)CC3)cc2)cc1[N+](=O)[O-] [N-[(4-{[(2R)-4-(dimethylamino)-1-(phenylsulfanyl)butan-2-yl]amino}-3-nitrobenzene)sulfonyl]-4-[4-(pyridin-3-ylmethylidene)piperidin-1-yl]benzamide]	1900 nM and 5300 nM	
CN(C)CC[C@H](CSc1ccccc1)Nc1ccc(S(=O)(=O)NC(=O)c2ccc(N3CCN(Cc4ccccc4-c4ccc(C(F)(F)F)cc4)CC3)cc2)cc1[N+](=O)[O-] [N-[(4-{[(2R)-4-(dimethylamino)-1-(phenylsulfanyl)butan-2-yl]amino}-3-nitrobenzene)sulfonyl]-4-[4-({2-[4-(trifluoromethyl)phenyl]phenyl}methyl)piperazin-1-yl]benzamide]	40 nM and 13 nM	
CN(C)CC[C@H](CSc1ccccc1)Nc1ccc(S(=O)(=O)NC(=O)c2ccc(N3CCN(Cc4ccccc4S(C)(=O)=O)CC3)cc2)cc1[N+](=O)[O-] [N-[(4-{[(2R)-4-(dimethylamino)-1-(phenylsulfanyl)butan-2-yl]amino}-3-nitrobenzene)sulfonyl]-4-{4-[(2-methanesulfonylphenyl)methyl]piperazin-1-yl}benzamide]	5500 nM and 6800 nM	
COc1ccccc1CN1CCN(c2ccc(C(=O)NS(=O)(=O)c3ccc(N[C@H](CCN(C)C)CSc4ccccc4)c([N+](=O)[O-])c3)cc2)CC1 [N-[(4-{[(2R)-4-(dimethylamino)-1-(phenylsulfanyl)butan-2-yl]amino}-3-nitrobenzene)sulfonyl]-4-{4-[(2-methoxyphenyl)methyl]piperazin-1-yl}benzamide]	390 nM and 950 nM	
Cc1ccccc1CN1CCN(c2ccc(C(=O)NS(=O)(=O)c3ccc(N[C@H](CCN(C)C)CSc4ccccc4)c([N+](=O)[O-])c3)cc2)CC1 [N-[(4-{[(2R)-4-(dimethylamino)-1-(phenylsulfanyl)butan-2-yl]amino}-3-nitrobenzene)sulfonyl]-4-{4-[(2-methylphenyl)methyl]piperazin-1-yl}benzamide]	410 nM and 940 nM	
CN(C)CC[C@H](CSc1ccccc1)Nc1ccc(S(=O)(=O)NC(=O)c2ccc(N3CCN(Cc4ccccc4-c4ccccc4)CC3)cc2)cc1[N+](=O)[O-] [N-[(4-{[(2R)-4-(dimethylamino)-1-(phenylsulfanyl)butan-2-yl]amino}-3-nitrobenzene)sulfonyl]-4-{4-[(2-phenylphenyl)methyl]piperazin-1-yl}benzamide]	18 nM and 16 nM	
